From US20150224211A1, “LEUKOCYTES AS DELIVERY CELLS FOR IMAGING AND DISEASE THERAPY” (priority 2012, published 2015)
Entries after “also recorded” stand apart in the source; their conditions may differ.

Experiments:
[1] = tested on: 4T1 mouse mammary carcinoma cells; test: In situ photodynamic therapy (ALA plus luminol) of mouse mammary tumors; format: in vivo; conditions: ALA 100 mg/kg IP prior to luminol 250 mg/kg IP; treatment repeated; four days after PDT
Protocol: 1×10^5 4T1 mouse mammary carcinoma cells (ATCC) were transplanted into a mammary fat pad of a mouse. Four, six, eight and ten days after transplant, luminol (Sigma-Aldrich) was administered intrapertioneally (IP)(250 mg/kg) and the mouse was imaged on an IVIS Lumina imaging apparatus. For in situ photodynamic therapy, the sensitizer alpha aminolevulinic acid (ALA), which is a precursor to protoporphyrin IX (a clinically used photosensitizer), was administered IP (100 mg/kg,) prior to luminol administration. […] Adjunct treatments designed to enhance the PDT effect included the administration of the TGF-β inhibitor LY34947 (1 mg/kg, IP), streptokinase (800 units/mouse, IV), or a combination of LY34947 and streptokinase.

[2] = tested on: Fusobacterium necrophorum subsp. necrophorum strain 8L1; test: Efficacy study in mouse model of liver abscesses; format: in vivo, BALB/c mice; conditions: 60 μg CHX in 1.3×10^6 neutrophils
Protocol: In an efficacy study that followed, Fusobacterium necrophorum subsp. necrophorum strain 8L1 was grown overnight from a single colony in PRAS-BHI. 0.3 ml of the starter culture was added to 10 ml of fresh PRAS-BHI broth and grown to an O.D.600 of 0.7. 1 ml of this culture was diluted 1:40 to achieve a final concentration of approximately 4·10^6 CFU/ml. 400 μl of the diluted bacteria was injected intraperitonially into 10 week old BALB/c mice.
Ten-week old BALB/c mice were randomly assigned into 6 groups with 9 mice per group. On day zero, all mice were infected intraperitonially with an infectious dose (approximately 1×10^7 CFU) of F. necrophorum. On day 3, mice were injected (via tail vein) with 100 μl PBS (control), unmodified neutrophils, neutrophils carrying microparticles (an average of 20 cells of M. luteus loaded with chlorhexidine), or neutrophils containing unmodified, heat deactivated M. luteus. The animals were monitored for clinical signs for 5 days after treatment and were euthanized if any clinical signs developed. The mice were euthanized 5 days post treatment and all mice were examined post mortem for abscesses in the livers. Livers of the mice were weighed and homogenized in a tissue homogenizer for 1 min in modified lactate (ML) broth. […]

NCC(=O)CCC(=O)O [ALA, 5-aminolevulinic acid]
tumor response determined by imaging with luciferin [1]: can attenuate tumors; also recorded: dramatic regression of the tumors

[H]/N=C(\N/C(=N/[H])NCCCCCCNC(=N)NC(=N)Nc1ccc(Cl)cc1)Nc1ccc(Cl)cc1 [CHX, chlorhexidine gluconate]
effect against the hepatic disease caused by F. necrophorum [2]: effective
